{"source": "patent US8314150B2", "about": "“Kinase protein binding inhibitors” (priority 2008, dated 2012)", "key": {"caspase-3": {"test_system": "caspase-3", "assay": "Caspase-3 immunohistochemistry of Panc-1 tumors", "format": "in vivo, mice", "settings": "30 mg/kg, no significant increase", "method": "(§1) Cell Viability Assay—The Cells were treated with peptides for 24 hours at different peptide concentrations. The 3-(4,5-dimethylthiazol-2-yl)-5-(3-carboxymethoxyphenyl)-2-(4-sulfophenyl)-2H-tetrazolium compound from Promega Viability kit (Madison, Ill.) was added, and the cells were incubated at 37° C. for 1-2 hours. The optical density on 96-plate was analyzed with a microplate reader at 490 nm to determine cell viability. In addition, cells were stained with trypan blue after 24 hours of treatment with Y15 and the percent of cells that stained positive were determined with a hemacytometer. […] Then 2% SDS was added to the dried plated and OD at 590 nm was measured for detecting cell adhesion. […] Protein concentrations were determined using a Bio-Rad Kit. The boiled samples were loaded on Ready SDS-10% PAGE gels (Bio Rad, Inc) and used for Western blot analysis with the protein-specific antibody. […] Detachment Assay—Cells were plated with and without inhibitors for 24 hours, and detached and attached cells were counted in a hemocytometer. We calculated the percent of detachment by dividing the number of detached cells by the total number of cells. The percent of detached cells was calculated in three independent experiments. […] For each experiment 300 cells per treatment were counted. […]"}, "VEGFR-3 phosphorylation": {"test_system": "VEGFR-3 phosphorylation", "assay": "Phosphorylation of VEGFR-3 in cells", "format": "cell-based", "settings": "not shown", "method": "as §1"}, "[1]": {"test_system": "resistant breast cancer cells with overexpressed Src and activated FAK", "assay": "Cell viability in resistant breast cancer cells", "format": "cell-based", "settings": "not shown", "method": "as §1"}, "[2]": {"test_system": "Y397 phosphorylation of FAK", "assay": "Western blotting with Y397 FAK antibody, BT474 cells", "format": "cell-based", "method": "(§2) Cell Viability Assay—The Cells were treated with peptides for 24 hours at different peptide concentrations. The 3-(4,5-dimethylthiazol-2-yl)-5-(3-carboxymethoxyphenyl)-2-(4-sulfophenyl)-2H-tetrazolium compound from Promega Viability kit (Madison, Ill.) was added, and the cells were incubated at 37° C. for 1-2 hours. The optical density on 96-plate was analyzed with a microplate reader at 490 nm to determine cell viability. In addition, cells were stained with trypan blue after 24 hours of treatment with Y15 and the percent of cells that stained positive were determined with a hemacytometer. Cell adhesion assay—The poly-L-Lysine or Collagen (5 μg/ml) coated 96-well plates were blocked with the blocking buffer (medium with 0.5% BSA) for 1 hour at 37 C. The cells were pre-treated with drugs for 3 hours and plated for adhesion at 4×10^5 cells. Cells were incubated at 37 C for 1 hour, fixed in 3.7% formaldehyde, washed in 0.1% BSA in PBS and stained with crystal violet (5 mg/ml in 2% ethanol) for 10 minutes. Then 2% SDS was added to the dried plated and OD at 590 nm was measured for detecting cell adhesion. Western Blotting—Cells or homogenized tumor samples were washed twice with cold 1×PBS and lysed on ice for 30 minutes in a buffer containing: 50 mM Tris-HCl (pH 7.5), 150 mM NaCl, 1% Triton-X, 0.5% NaDOC, 0.1% SDS, 5 mM EDTA, 50 mM NaF, 1 mM NaVO3, 10% glycerol and protease inhibitors: 10 μg/ml leupeptin, 10 μg/ml PMSF and 1 μg/ml aprotinin. The lysates were cleared by centrifugation at 10,000 rpm for 30 minutes at 4° C. Protein concentrations were determined using a Bio-Rad Kit. The boiled samples were loaded on Ready SDS-10% PAGE gels (Bio Rad, Inc) and used for Western blot analysis with the protein-specific antibody. Immunoblots were developed with chemiluminescence Renaissance reagent (NEN Life Science Products, Inc). Immunoprecipitation. Immunoprecipitation was performed according to the standard protocol. In brief, the pre-cleared lysates with equal amount of protein were incubated with 1 μg of primary antibody and 30 μl A/G agarose beads overnight at 4° C. The precipitates were washed with lysis buffer three times and re-suspended in 2× Laemmli buffer. The boiled samples were used for Western blotting, as described above. Detachment Assay—Cells were plated with and without inhibitors for 24 hours, and detached and attached cells were counted in a hemocytometer. We calculated the percent of detachment by dividing the number of detached cells by the total number of cells. The percent of detached cells was calculated in three independent experiments. Apoptosis Assay. Detached cells were collected and fixed in 3.7% formaldehyde in 1×PBS solution for the apoptosis assay. Detection of apoptosis was done with Hoechst 33342 staining. The percent of apoptotic cells was calculated as a ratio of apoptotic detached cells divided by the total number of cells in three independent experiments in several fields with the fluorescent microscope. For each experiment 300 cells per treatment were counted. In vitro Kinase Assay—10 μCi of [γ-^32P]-ATP in a kinase buffer (20 mM HEPES, pH 7.4, 5 mM MgCl2, 5 mM MnCl2, 0.1 mM Na3VO4 with 0.1 μg of purified FAK protein were incubated in a kinase buffer with 10 μCi of [γ-^32P]-ATP. The kinase reaction was performed for 5 minutes at room temperature and stopped by addition of 2× Laemmli buffer. Proteins were separated on a Ready SDS-10% PAGE gel, and the phosphorylated enolase was visualized by autoradiography. KinaseProfiler screening—Kinase specificity screening was performed with KinaseProfiler™ Service (Millipore) available on http://www.millipore.com/drugdiscovery/dd3/KinaseProfiler. The screening was performed with 1 μM Y15, 10 μM ATP and kinase substrates on 9 recombinant kinases according to Millipore protocol. Tumor Growth in Nude Mice—Female nude mice, 6 weeks old, were purchased from Harlan Laboratory. […]"}, "[3]": {"test_system": "tumor associated fibroblasts", "assay": "Trypan blue staining, tumor associated fibroblasts", "format": "cell-based", "settings": "increasing doses, 24 hours", "method": "as §1"}, "Miapaca-2 cells": {"test_system": "Miapaca-2 cells", "assay": "Detachment assay, Miapaca-2", "format": "cell-based, human", "method": "as §1"}, "[4]": {"test_system": "BT474 breast cancer cells", "assay": "BT474 subcutaneous tumor growth in nude mice", "format": "in vivo", "method": "as §2, with “Western Blotting—Cells or homogenized tumor samples were washed twice with cold 1×PBS and lysed on ice for 30 minutes in a buffer containing: 50 mM Tris-HCl (pH 7.5), 150 mM NaCl, 1% Triton-X, 0.5% NaDOC, 0.1% SDS, 5 mM EDTA, 50 mM NaF, 1 mM NaVO3, 10% glycerol and protease inhibitors: 10 μg/ml leupeptin, 10 μg/ml PMSF and 1 μg/ml aprotinin. The lysates were cleared by centrifugation at 10,000 rpm for 30 minutes at 4° C.” left out, “Immunoblots were developed with chemiluminescence Renaissance reagent (NEN Life Science Products, Inc). Immunoprecipitation. Immunoprecipitation was performed according to the standard protocol. In brief, the pre-cleared lysates with equal amount of protein were incubated with 1 μg of primary antibody and 30 μl A/G agarose beads overnight at 4° C. The precipitates were washed with lysis buffer three times and re-suspended in 2× Laemmli buffer. The boiled samples were used for Western blotting, as described above.” left out, “Apoptosis Assay. Detached cells were collected and fixed in 3.7% formaldehyde in 1×PBS solution for the apoptosis assay. Detection of apoptosis was done with Hoechst 33342 staining.” left out, “http://www.millipore.com/drugdiscovery/dd3/KinaseProfiler.” for “http://www.millipore.com/drugdiscovery/dd3/KinaseProfiler. The screening was performed with 1 μM Y15, 10 μM ATP and kinase substrates on 9 recombinant kinases according to Millipore protocol. Tumor Growth in Nude Mice—Female nude mice, 6 weeks old, were purchased from Harlan Laboratory.”"}}}
{"smiles": "Cl.Cl.Cl.Cl.Nc1cc(N)c(N)cc1N", "note": "[Y15, 1,2,4,5-benzenetetraamine tetrahydrochloride]", "values": [{"measurement": "apoptotic cells in tumors (caspase-3 staining)", "setting": "caspase-3", "result": 6, "unit": "%"}, {"measurement": "phosphorylation of VEGFR-3", "setting": "VEGFR-3 phosphorylation", "result": "did not inhibit"}, {"measurement": "cell viability", "setting": "[1]", "result": "effectively blocked cell viability"}, {"measurement": "total FAK level", "setting": "[2]; 100 μM", "result": "down-regulates FAK"}, {"measurement": "treatment time enough to completely block Y397-phosphorylation", "setting": "[2]; 100 μM", "result": 8, "unit": "h"}, {"measurement": "inhibition of Y397 phosphorylation compared with TAE226", "setting": "[2]; 100 μM dose, 24 hours", "result": "same inhibition as TAE226"}, {"measurement": "Y397 phosphorylation after 4 hours", "setting": "[2]; 100 μM, 4 hours", "result": "did not significantly decreased Y397 phosphorylation"}, {"measurement": "Y397 phosphorylation of FAK", "setting": "[2]; 100 μM, 24 hours", "result": "specifically inhibited Y397 phosphorylation of FAK"}, {"measurement": "dose with high inhibition of Y397 phosphorylation", "setting": "[2]; 24 hours", "result": 50, "unit": "µM"}, {"measurement": "dose with maximal inhibition of Y397 phosphorylation", "setting": "[2]; 24 hours", "result": 100, "unit": "µM"}, {"measurement": "cell viability (trypan blue)", "setting": "[3]", "result": "no significant decrease in viability"}, {"measurement": "dose from which detachment was significant", "setting": "Miapaca-2 cells", "result": 3, "unit": "µM"}, {"measurement": "tumor growth", "setting": "[4]; 30 mg/kg IP, 5 days/week", "result": "significantly blocked tumor growth"}, {"measurement": "inhibition of tumor growth", "setting": "[4]; 30 mg/kg, alone", "result": "> 74", "unit": "%"}, {"measurement": "tumor volume", "setting": "[4]; 30 mg/kg, day 23, vs untreated", "result": "significantly less than in untreated samples"}, {"measurement": "tumor weight", "setting": "[4]; 30 mg/kg, day 23, vs untreated mice", "result": "significantly reduced tumor weight"}]}
